Reference: US9670227B2, “Thienopyrimidine derivatives, a process for their preparation and pharmaceutical compositions containing them” (LES LABORATOIRES SERVIER, priority 2013, dated 2017)

Columns and labels:
[1] = target: Mcl-1 protein (UniProtKB primary accession number: Q07820) (Homo sapiens, UniProt Q07820); test: Inhibition of Mcl-1 by fluorescence polarisation, Method 1; assay type: binding; conditions: fluorescence polarisation test; Method 2 values are underlined in the patent (underlining not visible here); read-out: IC50 (M) Mcl-1 FP
Procedure, shortened: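 Compounds were tested as 11-point serial dilutions at 5% final DMSO against 5 nM Mcl-1 with 1 nM fluorescein-labelled ligand in 10 mM HEPES, 150 mM NaCl, 0.05% Tween 20, pH 7.4. Relative binding potency was read by fluorescence polarisation.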

[2] = system: H929 multiple myeloma tumour line; test: In vitro cytotoxicity, Microculture Tetrazolium Assay; assay type: cell-based; conditions: Homo sapiens, NCI-H929, 48 h, H929 cells, 48 hours exposure, MTT; read-out: IC50 (μM) MTT H929
Procedure: The cytotoxicity studies were carried out on the H929 multiple myeloma tumour line.
The cells are distributed onto microplates and exposed to the test compounds for 48 hours.

Mcl-1 protein, sequence (Q07820 whole entry): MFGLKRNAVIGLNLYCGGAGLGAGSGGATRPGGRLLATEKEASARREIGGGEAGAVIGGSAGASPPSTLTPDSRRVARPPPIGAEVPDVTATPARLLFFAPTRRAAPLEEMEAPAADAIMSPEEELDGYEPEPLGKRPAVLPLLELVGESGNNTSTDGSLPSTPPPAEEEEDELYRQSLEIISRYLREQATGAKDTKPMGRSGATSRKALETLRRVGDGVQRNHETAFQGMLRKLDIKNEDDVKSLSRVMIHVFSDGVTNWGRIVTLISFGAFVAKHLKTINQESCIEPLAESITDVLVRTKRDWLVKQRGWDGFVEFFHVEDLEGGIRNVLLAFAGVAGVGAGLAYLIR

Row | Compound | IC50 [1] [M] | IC50 [2] [µM]
1 | CCn1nccc1COc1ccccc1CC(Oc1ncnc2sc(-c3ccco3)c(-c3ccc(OCCN4CCN(C)CC4)c(Cl)c3C)c12)C(=O)O [Example 264, (2R)-2-{[(5Sa)-5-{3-chloro-2-methyl-4-[2-(4-methylpiperazin-1-yl)ethoxy]phenyl}-6-(furan-2-yl)thieno[2,3-d]pyrimidin-4-yl]oxy}-3-{2-[(1-ethyl-1H-pyrazol-5-yl)methoxy]phenyl}propanoic acid] | 9.1e-09 | 0.034
2 | Cc1c(-c2c(-c3ccco3)sc3ncnc(OC(Cc4ccccc4OCc4cn(C)cn4)C(=O)O)c23)ccc(OCCN2CCN(C)CC2)c1Cl [Example 267, (2R)-2-{[(5Sa)-5-{3-chloro-2-methyl-4-[2-(4-methylpiperazin-1-yl)ethoxy]phenyl}-6-(furan-2-yl)thieno[2,3-d]pyrimidin-4-yl]oxy}-3-{2-[(1-methyl-1H-imidazol-4-yl)methoxy]phenyl}propanoic acid] | 8.8e-09 | 1.6
3 | Cc1cnc(COc2ccccc2CC(Oc2ncnc3sc(-c4ccco4)c(-c4ccc(OCCN5CCN(C)CC5)c(Cl)c4C)c23)C(=O)O)cn1 [Example 268, (2R)-2-{[(5Sa)-5-{3-chloro-2-methyl-4-[2-(4-methylpiperazin-1-yl)ethoxy]phenyl}-6-(furan-2-yl)thieno[2,3-d]pyrimidin-4-yl]oxy}-3-{2-[(5-methylpyrazin-2-yl)methoxy]phenyl}propanoic acid] | 8.2e-09 | 0.086
4 | COc1cnc(COc2ccccc2CC(Oc2ncnc3sc(-c4ccco4)c(-c4ccc(OCCN5CCN(C)CC5)c(Cl)c4C)c23)C(=O)O)cn1 [Example 270, (2R)-2-{[(5Sa)-5-{3-chloro-2-methyl-4-[2-(4-methylpiperazin-1-yl)ethoxy]phenyl}-6-(furan-2-yl)thieno[2,3-d]pyrimidin-4-yl]oxy}-3-{2-[(5-methoxypyrazin-2-yl)methoxy]phenyl}propanoic acid] | 1.2e-08 | 0.068
5 | Cc1ncc(COc2ccccc2CC(Oc2ncnc3sc(-c4ccco4)c(-c4ccc(OCCN5CCN(C)CC5)c(Cl)c4C)c23)C(=O)O)cn1 [Example 271, (2R)-2-{[(5Sa)-5-{3-chloro-2-methyl-4-[2-(4-methylpiperazin-1-yl)ethoxy]phenyl}-6-(furan-2-yl)thieno[2,3-d]pyrimidin-4-yl]oxy}-3-{2-[(2-methylpyrimidin-5-yl)methoxy]phenyl}propanoic acid] | 1.6e-08 | 0.197
6 | Cc1c(-c2c(-c3ccco3)sc3ncnc(OC(Cc4ccccc4OCc4cnc(N5CCOCC5)nc4)C(=O)O)c23)ccc(OCCN2CCN(C)CC2)c1Cl [Example 273, (2R)-2-{[(5Sa)-5-{3-chloro-2-methyl-4-[2-(4-methylpiperazin-1-yl)ethoxy]phenyl}-6-(furan-2-yl)thieno[2,3-d]pyrimidin-4-yl]oxy}-3-(2-{[2-(morpholin-4-yl)pyrimidin-5-yl]methoxy}phenyl)propanoic acid] | 9.2e-09 | 0.905
7 | Cc1c(-c2c(-c3ccco3)sc3ncnc(OC(Cc4ccccc4OCc4cnccn4)C(=O)O)c23)ccc(OCCN2CCN(C)CC2)c1Cl [Example 275, (2R)-2-{[(5Sa)-5-{3-chloro-2-methyl-4-[2-(4-methylpiperazin-1-yl)ethoxy]phenyl}-6-(furan-2-yl)thieno[2,3-d]pyrimidin-4-yl]oxy}-3-[2-(pyrazin-2-ylmethoxy)phenyl]propanoic acid] | 4.5e-09 | 0.051
8 | Cc1c(-c2c(-c3ccco3)sc3ncnc(OC(Cc4ccccc4OCc4cncnc4)C(=O)O)c23)ccc(OCCN2CCN(C)CC2)c1Cl [Example 277, (2R)-2-{[(5Sa)-5-{3-chloro-2-methyl-4-[2-(4-methylpiperazin-1-yl)ethoxy]phenyl}-6-(furan-2-yl)thieno[2,3-d]pyrimidin-4-yl]oxy}-3-[2-(pyrimidin-5-ylmethoxy)phenyl]propanoic acid] | 4.8e-09 | 0.07
9 | Cc1c(-c2c(-c3ccco3)sc3ncnc(OC(Cc4ccccc4OCc4cnn(C)c4)C(=O)O)c23)ccc(OCCN2CCN(C)CC2)c1Cl [Example 279, (2R)-2-{[(5Sa)-5-{3-chloro-2-methyl-4-[2-(4-methylpiperazin-1-yl)ethoxy]phenyl}-6-(furan-2-yl)thieno[2,3-d]pyrimidin-4-yl]oxy}-3-{2-[(1-methyl-1H-pyrazol-4-yl)methoxy]phenyl}propanoic acid] | 8e-09 | 0.406
10 | Cc1c(-c2c(-c3ccco3)sc3ncnc(OC(Cc4ccccc4OCc4cocn4)C(=O)O)c23)ccc(OCCN2CCN(C)CC2)c1Cl [Example 280, (2R)-2-{[(5Sa)-5-{3-chloro-2-methyl-4-[2-(4-methylpiperazin-1-yl)ethoxy]phenyl}-6-(furan-2-yl)thieno[2,3-d]pyrimidin-4-yl]oxy}-3-[2-(1,3-oxazol-4-ylmethoxy)phenyl]propanoic acid] | 4e-09 | 0.071
11 | Cc1c(-c2c(-c3ccco3)sc3ncnc(OC(Cc4ccccc4OCc4c5ccccc5nn4C)C(=O)O)c23)ccc(OCCN2CCN(C)CC2)c1Cl [Example 282, (2R)-2-{[(5Sa)-5-{3-chloro-2-methyl-4-[2-(4-methylpiperazin-1-yl)ethoxy]phenyl}-6-(furan-2-yl)thieno[2,3-d]pyrimidin-4-yl]oxy}-3-{2-[(2-methyl-2H-indazol-3-yl)methoxy]phenyl}propanoic acid] | 4e-08 | 0.601
12 | Cc1c(-c2c(-c3ccco3)sc3ncnc(OC(Cc4ccccc4OCc4ncc(-c5ccccc5)cn4)C(=O)O)c23)ccc(OCCN2CCN(C)CC2)c1Cl [Example 283, (2R)-2-{[(5Sa)-5-{3-chloro-2-methyl-4-[2-(4-methylpiperazin-1-yl)ethoxy]phenyl}-6-(furan-2-yl)thieno[2,3-d]pyrimidin-4-yl]oxy}-3-{2-[(5-phenylpyrimidin-2-yl)methoxy]phenyl}propanoic acid] | 2.6e-08 | 0.25
13 | Cc1c(-c2c(-c3ccco3)sc3ncnc(OC(Cc4ccccc4OCc4nccc5ccccc45)C(=O)O)c23)ccc(OCCN2CCN(C)CC2)c1Cl [Example 284, (2R)-2-{[(5Sa)-5-{3-chloro-2-methyl-4-[2-(4-methylpiperazin-1-yl)ethoxy]phenyl}-6-(furan-2-yl)thieno[2,3-d]pyrimidin-4-yl]oxy}-3-[2-(isoquinolin-1-ylmethoxy)phenyl]propanoic acid] | 4.8e-08 | 1.79

Continued by falling IC50 [1], values first:

Row | IC50 [1] [M] | Compound | IC50 [2] [µM]
14 | 2.2e-08 | Cc1c(-c2c(-c3ccco3)sc3ncnc(OC(Cc4ccccc4OCc4cnc(N5CCCC5)nc4)C(=O)O)c23)ccc(OCCN2CCN(C)CC2)c1Cl [Example 272, (2R)-2-{[(5Sa)-5-{3-chloro-2-methyl-4-[2-(4-methylpiperazin-1-yl)ethoxy]phenyl}-6-(furan-2-yl)thieno[2,3-d]pyrimidin-4-yl]oxy}-3-(2-{[2-(pyrrolidin-1-yl)pyrimidin-5-yl]methoxy}phenyl)propanoic acid] | 0.822
15 | 1.1e-08 | Cc1c(-c2c(-c3ccco3)sc3ncnc(OC(Cc4ccccc4OCc4cnc(Cl)cn4)C(=O)O)c23)ccc(OCCN2CCN(C)CC2)c1Cl [Example 269, (2R)-2-{[(5Sa)-5-{3-chloro-2-methyl-4-[2-(4-methylpiperazin-1-yl)ethoxy]phenyl}-6-(furan-2-yl)thieno[2,3-d]pyrimidin-4-yl]oxy}-3-{2-[(5-chloropyrazin-2-yl)methoxy]phenyl}propanoic acid] | 0.069
16 | 7.9e-09 | Cc1c(-c2c(-c3ccco3)sc3ncnc(OC(Cc4ccccc4OCc4cscn4)C(=O)O)c23)ccc(OCCN2CCN(C)CC2)c1Cl [Example 281, (2R)-2-{[(5Sa)-5-{3-chloro-2-methyl-4-[2-(4-methylpiperazin-1-yl)ethoxy]phenyl}-6-(furan-2-yl)thieno[2,3-d]pyrimidin-4-yl]oxy}-3-[2-(1,3-thiazol-4-ylmethoxy)phenyl]propanoic acid] | 0.081
17 | 7.7e-09 | COc1ncc(COc2ccccc2CC(Oc2ncnc3sc(-c4ccco4)c(-c4ccc(OCCN5CCN(C)CC5)c(Cl)c4C)c23)C(=O)O)cn1 [Example 274, (2R)-2-{[(5Sa)-5-{3-chloro-2-methyl-4-[2-(4-methylpiperazin-1-yl)ethoxy]phenyl}-6-(furan-2-yl)thieno[2,3-d]pyrimidin-4-yl]oxy}-3-{2-[(2-methoxypyrimidin-5-yl)methoxy]phenyl}propanoic acid] | 0.131
18 | 6.7e-09 | Cc1c(-c2c(-c3ccco3)sc3ncnc(OC(Cc4ccccc4OCc4cncs4)C(=O)O)c23)ccc(OCCN2CCN(C)CC2)c1Cl [Example 278, (2R)-2-{[(5Sa)-5-{3-chloro-2-methyl-4-[2-(4-methylpiperazin-1-yl)ethoxy]phenyl}-6-(furan-2-yl)thieno[2,3-d]pyrimidin-4-yl]oxy}-3-[2-(1,3-thiazol-5-ylmethoxy)phenyl]propanoic acid] | 0.202
19 | 5.7e-09 | Cc1c(-c2c(-c3ccco3)sc3ncnc(OC(Cc4ccccc4OCC4CCO4)C(=O)O)c23)ccc(OCCN2CCN(C)CC2)c1Cl [Example 266, (2R)-2-{[(5Sa)-5-{3-chloro-2-methyl-4-[2-(4-methylpiperazin-1-yl)ethoxy]phenyl}-6-(furan-2-yl)thieno[2,3-d]pyrimidin-4-yl]oxy}-3-[2-(oxetan-2-ylmethoxy)phenyl]propanoic acid] | 0.093
20 | 2e-09 | Cc1c(-c2c(-c3ccco3)sc3ncnc(OC(Cc4ccccc4OCc4ccnn4-c4ccccc4)C(=O)O)c23)ccc(OCCN2CCN(C)CC2)c1Cl [Example 263, (2R)-2-{[(5Sa)-5-{3-chloro-2-methyl-4-[2-(4-methylpiperazin-1-yl)ethoxy]phenyl}-6-(furan-2-yl)thieno[2,3-d]pyrimidin-4-yl]oxy}-3-{2-[(1-phenyl-1H-pyrazol-5-yl)methoxy]phenyl}propanoic acid] | 0.126
